For data set [1], the target named is T1, human CYP2A6 (Homo sapiens, UniProt P11509).
T1 sequence (P11509 with tags, fused parts or gaps limits assumed): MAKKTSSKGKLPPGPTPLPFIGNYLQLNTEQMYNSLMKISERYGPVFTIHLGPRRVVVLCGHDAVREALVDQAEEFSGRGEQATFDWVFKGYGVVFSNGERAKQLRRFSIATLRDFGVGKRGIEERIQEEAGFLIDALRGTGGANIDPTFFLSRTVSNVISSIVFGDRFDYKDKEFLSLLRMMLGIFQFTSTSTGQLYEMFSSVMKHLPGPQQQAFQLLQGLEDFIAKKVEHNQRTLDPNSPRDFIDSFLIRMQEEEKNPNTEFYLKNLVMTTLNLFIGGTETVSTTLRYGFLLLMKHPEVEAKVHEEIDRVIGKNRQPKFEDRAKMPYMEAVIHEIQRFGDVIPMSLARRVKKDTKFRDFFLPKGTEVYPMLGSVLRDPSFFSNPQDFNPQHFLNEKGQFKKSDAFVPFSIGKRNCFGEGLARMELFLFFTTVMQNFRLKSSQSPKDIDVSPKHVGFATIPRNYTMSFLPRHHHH
As to the kind of experiment: Coumarin metabolism assay.

In data set [2] the test system is CYP2A6 / CYP2A13. As to the kind of experiment: Coumarin metabolism assay. The note with it: human, pH 7.4, probe coumarin (7-hydroxylation), Selectivity Ki (2A6)/ Ki (2A13), ratio of the CYP2A6 value to the CYP2A13 value.
The target of data set [3] is T2, human CYP2A13 (Homo sapiens, UniProt Q16696).
T2 sequence (Q16696 with tags, fused parts or gaps limits assumed): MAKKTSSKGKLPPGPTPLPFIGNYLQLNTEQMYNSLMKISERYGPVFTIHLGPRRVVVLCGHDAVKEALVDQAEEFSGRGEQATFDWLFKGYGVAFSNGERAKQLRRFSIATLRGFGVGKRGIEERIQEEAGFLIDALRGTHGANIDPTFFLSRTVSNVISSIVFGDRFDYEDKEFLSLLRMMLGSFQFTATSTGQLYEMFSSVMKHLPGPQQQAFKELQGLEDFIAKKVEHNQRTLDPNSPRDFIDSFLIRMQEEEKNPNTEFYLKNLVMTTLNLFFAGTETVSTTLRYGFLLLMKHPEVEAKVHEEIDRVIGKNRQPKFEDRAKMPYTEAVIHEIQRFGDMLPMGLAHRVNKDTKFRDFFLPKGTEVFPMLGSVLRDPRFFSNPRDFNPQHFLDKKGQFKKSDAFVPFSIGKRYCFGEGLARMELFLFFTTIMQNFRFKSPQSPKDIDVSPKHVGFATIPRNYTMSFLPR
As to the kind of experiment: Coumarin metabolism assay.

Data set [4] deals with T1, human CYP2A6. As to the kind of experiment: Spectral ligand binding assay. The note with it: for Kd: Kd 2A6, spectral titration, ≥ = minimal Kd value; for Spectral shift type 2A6: UV/Vis difference spectra.
For data set [5], the system named is human CYP2A13. As to the kind of experiment: Spectral ligand binding assay. Particulars: ratio of the CYP2A6 value to the CYP2A13 value.
Data set [6] has as its target T3, human CYP2A13 (Homo sapiens, UniProt Q16696).
T3 sequence (Q16696 25-494): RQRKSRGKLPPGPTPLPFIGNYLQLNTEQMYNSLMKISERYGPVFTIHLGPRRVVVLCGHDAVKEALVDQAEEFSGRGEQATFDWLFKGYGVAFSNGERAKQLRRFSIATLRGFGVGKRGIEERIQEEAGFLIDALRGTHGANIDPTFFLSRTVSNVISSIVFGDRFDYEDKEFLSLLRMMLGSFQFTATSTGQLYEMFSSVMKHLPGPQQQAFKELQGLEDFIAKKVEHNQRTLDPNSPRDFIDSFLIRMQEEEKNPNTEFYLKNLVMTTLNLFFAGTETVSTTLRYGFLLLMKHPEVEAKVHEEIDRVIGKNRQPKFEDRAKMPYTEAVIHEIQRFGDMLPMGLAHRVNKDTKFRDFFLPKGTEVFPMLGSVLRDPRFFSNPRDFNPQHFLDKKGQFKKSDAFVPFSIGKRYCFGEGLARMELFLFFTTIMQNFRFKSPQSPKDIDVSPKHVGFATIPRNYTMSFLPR
As to the kind of experiment: Spectral ligand binding assay. The note with it: for Kd: Kd 2A13, spectral titration, ≥ = minimal Kd value; for Spectral shift type 2A13: UV/Vis difference spectra.

In data set [7] the test system is CYP2A6 / CYP2A13. As to the kind of experiment: Spectral ligand binding assay. The note with it: human, Selectivity Kd (2A6)/ Kd (2A13), ratio of the CYP2A6 value to the CYP2A13 value. Also on record: species or system human.
Data set [8] concerns human CYP2A13. As to the kind of experiment: Coumarin metabolism assay. Particulars: ratio of the CYP2A6 value to the CYP2A13 value.
Data set [9] deals with NNK-induced tumors. The note with it: rats; reduced from 70% without inhibitor; cited from earlier work.

For `Cc1cccc(Cl)c1CN1CCOCC1` [Compound 9, 4-(2-chloro-6-methylbenzyl)morpholine], in data set [1], affinity was put at a Ki of 296 µM. Moreover, the selectivity ratio at 10 min in data set [2] was determined as 15. The compound further returned an inhibitory constant (Ki) in data set [3] of 19.7 ± 1.2 µM. Moreover, in data set [4], binding was put at a Kd of 515 µM and the “Spectral shift type 2A6” value was “I”. Further, in [5], the “Selectivity Kd (2A6)/ Kd (2A13)” value was found to be 468. In addition, in data set [6], binding was characterised by a dissociation constant (Kd) of 1.1 µM and the “Spectral shift type 2A13” value is on record as “I”. Also, the selectivity ratio in data set [7] is > 400.
For the compound `Clc1cccc(CN2CCOCC2)c1Cl` [Compound 12, 4-(2,3-dichlorobenzyl)morpholine], the inhibition constant Ki in data set [1] stood at 836 µM; in [3], 88.9 µM. Besides, in data set [8], the “Selectivity Ki (2A6)/ Ki (2A13)” value is on record as 9.4. Besides, the selectivity ratio at 10 min in data set [2] is ~9. Besides, the equilibrium dissociation constant (Kd) in data set [4] is ≥ 305 µM; in data set [6] it was 30.8 ± 8.1 µM. The “Spectral shift type 2A6” value in data set [4] is “I”. The “Spectral shift type 2A13” value in [6] is reported as “I”. Besides, in [7], the selectivity ratio is ≥ 9.9.
In [1], `Clc1ccc(CN2CCOCC2)c(Cl)c1` [Compound 13, 4-(2,4-dichlorobenzyl)morpholine] returned an inhibition constant Ki of 995 µM. Moreover, the “Selectivity Ki (2A6)/ Ki (2A13)” value in data set [8] came to 8.9. Besides, the selectivity ratio at 10 min in data set [2] is ~9. This compound also showed a Ki in data set [3] of 113 ± 14 µM. For the same compound, in data set [4], the Kd is ≥ 198 µM and the “Spectral shift type 2A6” value is listed as “I”. In data set [6], the dissociation constant Kd is 34.2 µM and the “Spectral shift type 2A13” value was “I”. Besides, the selectivity ratio in [7] is ≥ 5.8.
Take `Clc1ccccc1CN1CCSCC1` [Compound 18, 4-(2-chlorobenzyl)thiomorpholine]: in [1], affinity was put at a Ki of 483 µM. Further, the “Mode of inhibition 2A6” value in [1] (coumarin substrate) is on record as “mixed inhibition”. For the same compound, in [1] (coumarin substrate, mixed model inhibition), the “α (mixed inhibition) 2A6” value was 3.1. For the same compound, the “Selectivity Ki (2A6)/ Ki (2A13)” value in data set [8] turned out to be 8.2. Further, the selectivity ratio at 10 min in [2] was 8. For the same compound, in data set [3], the affinity corresponds to a Ki of 59 µM. Also, the “Selectivity Kd (2A6)/ Kd (2A13)” value in [5] is recorded as 18.6. Besides, in data set [6], the affinity, expressed as Kd, was 8.3 ± 4.1 µM and the “Spectral shift type 2A13” value is recorded as “I”. In data set [7], the selectivity ratio came out at 18.
As to `CC(c1ccccc1Cl)N1CCOCC1` (stereo not shown) [Compound 23, 4-(1-(2-chlorophenyl)ethyl)morpholine], the Ki in [1] came to 98.5 µM. Further, the selectivity ratio at 10 min in data set [2] worked out at 6.2. The same compound came in with a Ki in [3] of 15.9 µM. Moreover, in [4], the Kd was ≥ 538 µM and the “Spectral shift type 2A6” value is “I”. Besides, in data set [6], the Kd was 7.6 ± 2.8 µM and the “Spectral shift type 2A13” value is on record as “I”. The selectivity ratio in data set [7] was ≥ 70.8.
Turning to `S=C=NCCc1ccccc1` [PEITC, phenethyl isothiocyanate], the NNK-induced tumors in [9] is given as 5%.
